# Source: patent publication US20240118281A1, “ANTICANCER COMPOUNDS AND USES THEREOF” (University of Florida Research Foundation, Incorporated, priority 2021, published 2024)
# Legend:
# [1] = tested on: HER2+ BT474 xenograft tumors; test: BT474 xenograft tumor study, H&E staining of mammary fat pads/tumors; type: in vivo, mice; settings: 20 mg/kg intraperitoneal, four consecutive days; vehicle tumors showed no necrosis
# Procedure: Breast cancer liver metastasis was initiated in NOD-SCID-gamma (NSG) mice obtained from Jackson Laboratories (Bar Harbor, ME) by injecting 1×10^6 cancer cells into the #4 mammary fat pads as described previously (Wang M, et al. Cell Death Discovery 2019; 5: 153). Mice bearing HCI-001/LVM2 breast tumors were treated once daily for four consecutive days with 20 mg/kg tcyDTDO by oral gavage and livers were collected. Animals bearing HER2+ BT474 tumors were treated with the vehicle or 20 mg/kg dMtcyDTDO or dFtcyDTDO by intraperitoneal injection for four consecutive days. Tissue samples fixed in 4% paraformaldehyde/PBS and paraffin-embedded were sectioned and stained with hematoxylin and eosin (H&E) by the University of Florida Molecular Pathology Core (https://molecular.pathology.ufl.edu/).
# PDIA1 = PDIA1 (Homo sapiens, UniProt P07237); test: In vitro binding assay with recombinant purified PDIA1; settings: pre-incubation with a molar excess, FIG. 3D
# Procedure: Purified His6-AGR2 or His6-AGR2 C81S, as prepared above, or His6-AGR2 (PRO-580) or His6-AGR3 (PRO-242) obtained from ProSpec (New Brunswick NJ) were incubated with or without varying concentrations of the unlabeled DDA competitors, tcyDTDO or dMtcyDTDO, and 30 μM Biotin-GlyPyrDTDO or Biotin-PyrDTDO in buffer (20 mM HEPES (pH 7.4), 1 mM EDTA, 1 mM EGTA, 5% Glycerol, 1 nM Microcystin, 1 mM Na3VO4, and 40 mM Na2H2P2O7) containing 1% Triton-X 100 for 30 min at 37° C. […] Therefore, the two probes were used interchangeably. Reactions were stopped by boiling the samples in 2×-SDS-Sample Buffer containing 100 mM NEM for 10 min. Biotin-DDA labeling of protein was verified by blotting with Streptavidin-Alkaline Phosphatase (Rockland Immunochemicals, Inc., Limerick, PA). ERp44 (PRO-547) and PDIA1 (ENZ-262) were obtained from ProSpec and used in experiments examining the binding of these proteins to Biotin-PyrDTDO.
# Caspase 8 = Caspase 8 cleavage/activation (CC8), immunoblot; type: cell-based; settings: 24 h
# Description: The BT20, BT474, BT549, MCF7, MDA-MB-231, MDA-MB-436, MDA-MB-468, HCC1143, HCC1500, HCC1569, HCC1937, HCC1954, Hs578t, and T47D cells lines were purchased from American Type Culture Collection (ATCC) (Manassas, VA). The HCI-001 cell line was derived from an ER-/PR-/HER2- patient-derived xenograft originally isolated from a patient as described previously (DeRose Y S, et al. Nat Med 2011; 17: 1514-1520). The HCI-001/LVM2 model was derived from the HCI-001 cell line by performing two rounds of selection for liver metastasis, as described previously (Wang M, et al. Cell Death Discovery 2019; 5: 153). Cell lines were grown in Dulbecco's Modified Eagle's Medium (GE Healthcare Life Sciences, Logan, UT) containing 10% fetal bovine serum (10% FBS—DMEM) in a humidified incubator with 5% CO2 at 37° C. Cell lysates were prepared as described previously (Law B K, et al. Mol Cell Biol. 2002; 22: 8184-8198). […]
# To assess protein disulfide bond-mediated oligomerization, cells were treated with DDAs for 24 h in 10% FBS-DMEM. […] Samples were subsequently analyzed by SDS-PAGE and immunoblot.
# Chain of PDIA1 (P07237 18-508): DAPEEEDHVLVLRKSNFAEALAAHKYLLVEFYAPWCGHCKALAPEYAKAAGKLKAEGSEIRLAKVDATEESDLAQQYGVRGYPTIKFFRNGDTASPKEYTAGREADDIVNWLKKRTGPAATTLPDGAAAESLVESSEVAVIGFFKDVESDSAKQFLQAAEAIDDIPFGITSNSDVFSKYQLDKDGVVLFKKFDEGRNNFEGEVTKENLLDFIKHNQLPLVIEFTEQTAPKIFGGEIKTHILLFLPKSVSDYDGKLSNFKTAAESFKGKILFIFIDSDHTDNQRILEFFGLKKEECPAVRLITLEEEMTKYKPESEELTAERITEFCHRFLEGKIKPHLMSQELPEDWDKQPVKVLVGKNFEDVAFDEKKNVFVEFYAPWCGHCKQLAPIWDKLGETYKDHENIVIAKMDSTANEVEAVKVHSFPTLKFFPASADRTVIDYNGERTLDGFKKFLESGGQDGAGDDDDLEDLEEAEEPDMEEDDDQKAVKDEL
structure (smiles),measurement,setting,value
"CO[C@H]1C[C@@H]2CS(=O)(=O)SC[C@H]2C[C@@H]1OC [dMtcyDTDO, dimethoxy-tcyDTDO]","Tumors in mammary fat pads, H&E histology",[1],tumors that had undergone coagulation necrosis
same,Block of Biotin-PyrDTDO biotinylation of PDIA1,PDIA1,biotinylation was blocked
same,Induction of Caspase 8 cleavage/activation (CC8) in ERp44 knockdown versus vector control cells,"Caspase 8; MDA-MB-468 cells, 2.5 or 5 μM, FIG. 5D",increased dMtcyDTDO induction of Caspase 8 cleavage/activation
same,Caspase 8 cleavage in cells expressing C119S or C160S DR5 mutants,"Caspase 8; MDA-MB-468 stable cell lines, FIG. 7E",modestly increased Caspase 8 cleavage
